Patent US5869507A, “Azatyrosine analogues” (Wang; Hui-Po, priority 1997, dated 1999)
“And” between values parts separate entries of the source, which are not always exact repeats. Equal values may be shown once. Read-outs that look alike come from different tables or passages of the source.

Assays:
wild type NIH 3T3 cells = test: Growth inhibition of wild type NIH 3T3 cells (modified MTT assay, 48 h); assay type: cell-based; conditions: Mus musculus, NIH3T3, mean ± SD of 3-5 experiments
Procedure: (§1) Inhibition on the Growth of wild type and ras-transformed NIH 3T3 cells
(§2) The compounds of formula (I) were screened on wild type and ras-transformedNIH 3T3 cells for inhibitory activity. Screening was carried out in 96-well plate and the cells, with a density of 1500-2500 cells/well, were cultured in Dulbecco's modified Eagle's medium containing 10% fetal bovine serum at 37° C. under an atmosphere of 7.5% CO2 in air. Growth curve for each cell line was established. The DMSO solution of each compound was incubated with the cell for 48 hours. Procedure of Hansen's MTT assay method was modified for estimating the cell number (Hansen, B. M., Nielson, S. E., Berg, K. J. Immunol. Methods 1989, 119, 203.). The absorption of generated formazan's blue at l570 nm was recorded with ELISA reader. The number of surviving cells was determined from a calibration curve derived by correlating the absorption to the cell number determined from a hemacytometer. At least three experiments were carried out for each compound and IC50 was calculated using sigmoidal regression (Parellada, J., Guinea, M. J. Nat. Prod., 1995, 58, 823.). SI, the selectivity of growth inhibition of each test compound, was defined as the ratio of IC50 against wild type to IC50 against ras-transformed cell lines.

[1] = test system: ras-transformed NIH 3T3 cells; test: Growth inhibition of ras-transformed NIH 3T3 cells (modified MTT assay, 48 h); assay type: cell-based; conditions: for Selective toxicity (SI, IC50 wild type/IC50 ras-transformed): IC50 wild type/IC50 ras-transformed cells; for IC50: Mus musculus, NIH3T3; for Relative activity: Ratio of the IC50 of azatyrosine to the IC50 of test compound
Procedure: as §1, §2

[2] = test system: NIH 3T3 cells transformed by c-Ha-ras, c-Ki-ras, N-ras, or c-raf oncogene; conditions: cited from earlier work
wild type cells = conditions: cited from earlier work
[3] = test system: mice harboring a normal c-Ha-ras gene; conditions: 7,12-dimethylbenz[a]anthracene or methylnitrosourea-induced; cited from earlier work
[4] = test system: revertant clone on nude mice; conditions: some of the revertant clone; cited from earlier work
[5] = test system: ras-transformed tumor cells; conditions: relatively high concentrations up to; cited from earlier work
[6] = ras-transformed NIH 3T3, 48 hours, mean ± SD of 3-5 experiments, read-out: IC50 ras-transformed

Structure (SMILES) | IC50 (wild type NIH 3T3 cells) [µM] | Selective toxicity (SI, IC50 wild type/IC50 ras-transformed) [1] | IC50 [1, 6] [µM] | Relative activity ([1]; ras-transformed NIH 3T3) | Selective toxicity (SI, IC50 wild type/IC50 ras-transformed) ([1]; listed as compound 12) | IC50 ([1]; ras-transformed NIH 3T3, read-out: IC50) [µM] | IC50 fold lower than that of azatyrosine ([1]; ras-transformed NIH 3T3) [fold] | reversion of surviving transformed cells ([2]; azatyrosine-treated transformed cells that survived) | suppression of growth of transformed NIH 3T3 cells [2] | effect on growth of wild type cells (wild type cells) | inhibition of induced carcinogenesis [3] | tumorigenicity of revertant clones [4] | concentration necessary for the activity [5] [mM]
CC(C)(C)OC(=O)NC(Cc1ccc(OCc2ccccc2)cn1)C(=O)N1CCSCC1 (stereo not drawn) [Compound 15] | 154 ± 3.9 | 3.1 | 50.1 ± 1.04 | 150 | – | – | – | – | – | – | – | – | –
C=CCNC(=O)C(Cc1ccc(OCc2ccccc2)cn1)NC(=O)OC(C)(C)C (stereo not drawn) [Compound 9] | 213 ± 112 | 2.9 | 74.1 ± 15.2 | 102 | – | – | – | – | – | – | – | – | –
CC(C)(C)OC(=O)NC(Cc1ccc(OCc2ccccc2)cn1)C(=O)NC1CCCCC1 (stereo not drawn) [Compound 12, N-cyclohexyl 3-(5-benzyoxypyridin-2-yl)-2-t-butoxylcarbonylaminopropanamide] | 2280 ± 1760 | 138 and 138.5 | 16.1 ± 2.2 | 458 | 138.5 | 16.5 ± 2.2 | 458 | – | – | – | – | – | –
CC(C)(C)OC(=O)NC(Cc1ccc(OCc2ccccc2)cn1)C(=O)NC1CC1 (stereo not drawn) [Compound 11] | 1930 ± 899 | 18.4 | 104 ± 83.8 | 72 | – | – | – | – | – | – | – | – | –
N[C@@H](Cc1ccc(O)cn1)C(=O)O [azatyrosine, L-b-(5-hydroxy-2-pyridyl)alanine] | 10800 ± 472 | 1.4 | 7550 ± 418 | – | – | – | – | reverted to an apparently normal phenotype | suppress the growth | essentially no effect | inhibits | complete loss of tumorigenicity | 1 to 2
C#CCNC(=O)C(Cc1ccc(OCc2ccccc2)cn1)NC(=O)OC(C)(C)C (stereo not drawn) [Compound 10] | 410 ± 247 | 9.0 | 45.1 ± 1.65 | 165 | – | – | – | – | – | – | – | – | –
CC(C)(C)OC(=O)NC(Cc1ccc(OCc2ccccc2)cn1)C(=O)N1CCCCC1 (stereo not drawn) [Compound 13] | 74.8 ± 18.7 | 1.8 | 42.1 ± 3.9 | 180 | – | – | – | – | – | – | – | – | –
CCCNC(=O)C(Cc1ccc(OCc2ccccc2)cn1)NC(=O)OC(C)(C)C (stereo not drawn) [Compound 8, propyl 3-(5-benzyoxypyridin-2-yl)-2-t-butoxylcarbonylamino propanamide] | 989 ± 707 | 28.4 | 34.1 ± 0.8 | 217 | – | – | – | – | – | – | – | – | –
CC(C)(C)OC(=O)NC(Cc1ccc(OCc2ccccc2)cn1)C(=O)N1CCCC1 (stereo not drawn) [Compound 14] | 148 ± 12.5 | 2.5 | 59.1 ± 17.8 | 127 | – | – | – | – | – | – | – | – | –
CC(C)(C)OC(=O)NC(Cc1ccc(OCc2ccccc2)cn1)C(N)=O (stereo not drawn) [Compound 7, 3-(5-benzyoxypyridin-2-yl)-2-t-butoxylcarbonylamino NH3] | 1716 ± 10.4 | 23.5 | 73.1 ± 41.8 | 103 | – | – | – | – | – | – | – | – | –
